Reference: patent US6410556B1, “Modulators of protein tyrosine phosphateses (PTPases)” (Novo Nordisk A/S, priority 1999, dated 2002)

Molecular target: T1, truncated form of PTP1B (first 321 amino acids) (Homo sapiens, UniProt P18031)
T1 construct: a truncated form of PTPI B (corresponding to the first 321 amino acids); made in house; host or cells: E. coli
T1 sequence (P18031 1-321 limits assumed): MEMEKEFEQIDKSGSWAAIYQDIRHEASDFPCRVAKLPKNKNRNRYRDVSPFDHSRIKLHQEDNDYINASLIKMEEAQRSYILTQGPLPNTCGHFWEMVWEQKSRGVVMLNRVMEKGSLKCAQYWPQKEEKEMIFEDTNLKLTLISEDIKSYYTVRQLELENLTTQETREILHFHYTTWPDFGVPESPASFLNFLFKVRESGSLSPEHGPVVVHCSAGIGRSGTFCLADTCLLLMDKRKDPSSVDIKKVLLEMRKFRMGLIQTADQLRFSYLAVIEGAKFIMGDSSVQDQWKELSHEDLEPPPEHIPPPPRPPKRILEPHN
Assay: Inhibition of PTP1B, p-nitrophenyl phosphate substrate, enzyme kinetic analysis
Format: biochemical
Conditions: truncated PTP1B expressed in E. coli; substrate p-nitrophenyl phosphate 0.16 to 10 mM; 50 mM HEPES pH 7.0; 25° C., 60 minutes
Procedure: The compounds are evaluated for biological activity with a truncated form of PTPI B (corresponding to the first 321 amino acids), which was expressed in E. coli and purified to apparent homogeneity using published procedures well-known to those skilled in the art. The enzyme reactions are carried out using standard conditions essentially as described by Burke et al. (Biochemistry 35; 15989-15996 (1996)). The assay conditions are as follows. Appropriate concentrations of the compounds of the invention are added to the reaction mixtures containing different concentrations of the substrate, p-nitrophenyl phosphate (range: 0.16 to 10 mM—final assay concentration). The buffer used was 50 mM HEPES pH 7.0, 100 mM sodium chloride, 0.1% (w/v) bovine serum albumin, 5 mM glutathione, and 1 mM EDTA. The reaction was started by addition of the enzyme and carried out in microtiter plates at 25° C. for 60 minutes. The reactions are stopped by addition of NaOH. The enzyme activity was determined by measurement of the absorbance at 405 nm with appropriate corrections for absorbance at 405 nm of the compounds and p-nitrophenyl phosphate. The data are analyzed using nonlinear regression fit to classical Michaelis Menten enzyme kinetic models. Inhibition is expressed as Ki values in nM.

Row | Structure (SMILES) | Ki
1 | O=C(O)C(=O)Nc1sc2c(c1C(=O)O)CC(CN1Cc3c(O)cccc3C1=O)NC2 (stereo not shown) [Example 8, 5-(4-Hydroxy-1-oxo-1,3-dihydro-isoindol-2-ylmethyl)-2-(oxalyl-amino)-4,5,6,7-tetrahydro-thieno[2,3-c]pyridine-3-carboxylic acid] | 250 nM
2 | O=C(O)C(=O)Nc1sc2c(c1C(=O)O)CC(CNC1=NS(=O)(=O)c3ccccc31)NC2 (stereo not shown) [Example 10, 5-((1,1-Dioxo-1H-benzo[d]isothiazol-3-ylamino)methyl)-2-(oxalyl-amino)-4,5,6,7-tetrahydro-thieno[2,3-c]pyridine-3-carboxylic acid] | 270 nM
3 | O=C(O)C(=O)Nc1sc2c(c1C(=O)O)CCNC2CNC1=NS(=O)(=O)c2ccccc21 (stereo not shown) [Example 11, 7-((1,1-Dioxo-1H-benzo[d]isothiazol-3-ylamino)methyl)-2-(oxalyl-amino)-4,5,6,7-tetrahydro-thieno[2,3-c]pyridine-3-carboxylic acid] | 240 nM

Further lines, results first:

Row | Ki | Structure (SMILES)
4 | 570 nM | COc1cccc2c1C(=O)N(CC1Cc3c(sc(NC(=O)C(=O)O)c3C(=O)O)CN1)C2 (stereo not shown) [Example 12, 5-(7-Methoxy-1-oxo-1,3-dihydro-isoindol-2-ylmethyl)-2-(oxalyl-amino)-4,5,6,7-tetrahydro-thieno[2,3-c]pyridine-3-carboxylic acid]
5 | 830 nM | O=C(O)C(=O)Nc1sc2c(c1C(=O)O)CC(CNC(=O)C(=O)c1c[nH]c3ccccc13)NC2 (stereo not shown) [Example 36, 5-((2-(1H-indol-3-yl)-2-oxo-acetylamino)methyl)-2-(Oxalyl-amino)-4,5,6,7-tetrahydro-thieno[2,3-c]pyridine-3-carboxylic acid]
6 | 220 nM | CC(=O)N(Cc1ccc(Oc2ccccc2)cc1)C[C@@H]1NCCc2c1sc(NC(=O)C(=O)O)c2C(=O)O [Example 42, 7-(S)-((Acetyl-(4-phenoxy-benzyl)amino)methyl)-2-(oxalyl-amino)-4,5,6,7-tetrahydro-thieno[2,3-c]pyridine-3-carboxylic acid]
7 | 300 nM | COC(=O)c1cc(OC)cc2c1CN(CC1Cc3c(sc(NC(=O)C(=O)O)c3C(=O)O)CN1)C2=O (stereo not shown) [Example 46, 5-(6-Methoxy-4-methoxycarbonyl-1-oxo-1 ,3-dihydro-isoindol-2-ylmethyl)-2-(oxalyl-amino)-4,5,6,7-tetrahydro-thieno[2,3-c]pyridine-3-carboxylic acid]
